Data from patent US12653191B2, “Active compound combinations” (Bayer Aktiengesellschaft, priority 2020, dated 2026).
Several values for one entry are separate records, joined by “and”; a condition that tells them apart may be missing. Equal entries are not always repeated. Where two headings read alike, the source gives them in different places.

What was measured:
Cordana musae [1] = assay: in vitro-Test with fungal microorganisms, Method A (tables E1-E8); type: cell-based; settings: Neocordana musae, single substance, read-out: Efficacy %
Procedure: (§1) Example: In Vitro-Test with Fungal Microorganisms
(§2) Wells of 96-well microtiter plates are filled with 10 μl of a preparation of test compound or compound combination in methanol+emulsifier alkylaryl-polyglycol-ether. Thereafter, the solvent is evaporated in a hood. At the next step, 100 μl of liquid potato dextrose medium is given into each well, that has been amended with an appropriate concentration of spores or mycelium suspension of the test fungus.
(§3) With the aid of a photometer, the extinction in all wells is measured at the wavelength of 620 nm.
(§4) The microtiter plates are incubated at 20° C. and 85% relative humidity. The inhibition of growth is determined again photometrically 3-5 days after the application. Efficacy is calculated in relation to the untreated control, 0% efficacy means fungal growth as high as in untreated control while 100% efficacy means no fungal growth is measured.
(§5) The data in tables A1 to A12, B1 to B14, C1 to C10, D1 to D8, E1 to E8, F1 to F11, G1 to G4, H1 to H4 and I1 to I5 were collected according to Method A. The data in tables A13 to A22, B15 to B18, C11 to C20, E9 to E16, F12 to F15, G5 to G15, H5 to H8, I6 to I11 and J1 to J11 were collected according to Method B.

Fusarium culmorum = assay: in vitro-Test with fungal microorganisms, Method B (tables G5-G15); type: cell-based
Procedure: as §1
as §2, with “30” for “10”, “200” for “100”, “growth” for “potato dextrose”, “given,” for “given into each well,”
(§6) With the aid of a photometer, the extinction in all wells is measured at the wavelength of 600 nm.
(§7) The microtiter plates are incubated for 3 to 7 days at 20° C. and 85% relative humidity. After the incubation inhibition of growth is determined photometrically. Efficacy is calculated in relation to the untreated control, 0% efficacy means fungal growth as high as in untreated control while 100% efficacy means no fungal growth is measured.
as §5

Alternaria alternate = assay: in vitro-Test with fungal microorganisms, Method A (tables A1-A12); type: cell-based, Alternaria alternata; settings: Alternaria, applied alone, read-out: Efficacy %
Procedure: as §1, §2, §3, §4, §5

Cercospora beticola [2] = assay: in vitro-Test with fungal microorganisms, Method A (tables C1-C10); type: cell-based
Procedure: as §1, §2, §3, §4, §5

Alternaria alternata = assay: in vitro-Test with fungal microorganisms, Method B (tables A13-A22); type: cell-based
Procedure: as §1
as §2, with “30” for “10”, “200” for “100”, “growth” for “potato dextrose”, “given,” for “given into each well,”
as §6, §7, §5

Cordana musae [3] = assay: in vitro-Test with fungal microorganisms, Method B (tables E9-E16); type: cell-based; settings: single active
Procedure: as §1
as §2, with “30” for “10”, “200” for “100”, “growth” for “potato dextrose”, “given,” for “given into each well,”
as §6, §7, §5

Colletotrichum coccodes = assay: in vitro-Test with fungal microorganisms, Method B (tables J1-J11); type: cell-based
Procedure: as §1
as §2, with “30” for “10”, “200” for “100”, “growth” for “potato dextrose”, “given,” for “given into each well,”
as §6, §7, §5

Botrytis cinerea = assay: in vitro-Test with fungal microorganisms, Method A (tables B1-B14); type: cell-based; settings: alone
Procedure: as §1, §2, §3, §4, §5

Diaporthe citri = assay: in vitro-Test with fungal microorganisms, Method A (tables F1-F11); type: cell-based
Procedure: as §1, §2, §3, §4, §5

[4] = test system: Colletotrichum lindemuthianum; assay: in vitro-Test with fungal microorganisms, Method A (tables D1-D8); type: cell-based
Procedure: as §1, §2, §3, §4, §5

Cercospora beticola [5] = assay: in vitro-Test with fungal microorganisms, Method B (tables C11-C20); type: cell-based
Procedure: as §1
as §2, with “30” for “10”, “200” for “100”, “growth” for “potato dextrose”, “given,” for “given into each well,”
as §6, §7, §5

[6] = test system: Ustilago segetum var. avenae; assay: in vitro-Test with fungal microorganisms, Method B (tables I6-I11); type: cell-based
Procedure: as §1
as §2, with “30” for “10”, “200” for “100”, “growth” for “potato dextrose”, “given,” for “given into each well,”
as §6, §7, §5

[7] = Fusarium culmorum, alone, read-out: Efficacy
[8] = Fusarium culmorum, single active compound, read-out: Efficacy
[9] = Cercospora beticola, read-out: Efficacy %
[10] = Cercospora beticola, single compound, read-out: Efficacy %
[11] = single active compound at 4 ppm

OC(Cc1ccccc1Cl)(Cn1nc[nH]c1=S)C1(Cl)CC1 (centres unmarked) [(1.018) prothioconazole, prothioconazole]
inhibition of growth at 0.04 ppm (Cordana musae [1]; 0.04 ppm): 6% | inhibition of growth at 1 ppm (Cordana musae [1]; 1.0 ppm): 100% | inhibition of growth at 0.004 ppm (Fusarium culmorum; [7]): 6% | inhibition of growth at 0.02 ppm (Fusarium culmorum; [7]): 52% | inhibition of growth at 0.1 ppm (Fusarium culmorum; Fusarium culmorum, 0.1 ppm, alone, read-out: Efficacy): 98% | inhibition of growth at 0.004 ppm (Fusarium culmorum; [8]): 22% | inhibition of growth at 0.02 ppm (Fusarium culmorum; [8]): 22% | inhibition of growth at 0.008 ppm (Alternaria alternate; 0.008 ppm): 20% | inhibition of growth at 0.04 ppm (Alternaria alternate; 0.04 ppm): 15% | inhibition of growth at 0.2 ppm (Alternaria alternate; 0.2 ppm): 94% | Efficacy % (Cercospora beticola [2]; 0.2 ppm alone): 98% | inhibition of growth at 0.008 ppm (Cercospora beticola [2]; Cercospora beticola, 0.008 ppm, read-out: Efficacy %): 6% | inhibition of growth at 0.04 ppm (Cercospora beticola [2]; Cercospora beticola, 0.04 ppm alone, read-out: Efficacy %): 22% | inhibition of growth at 0.04 ppm (Cercospora beticola [2]; Cercospora beticola, 0.04 ppm, read-out: Efficacy %): 38% | inhibition of growth at 0.2 ppm (Cercospora beticola [2]; Cercospora beticola, 0.2 ppm alone, read-out: Efficacy %): 100% | inhibition of growth at 0.2 ppm (Cercospora beticola [2]; Cercospora beticola, 0.2 ppm, read-out: Efficacy %): 100% | inhibition of growth at 1 ppm (Cercospora beticola [2]; Cercospora beticola, 1.0 ppm alone, read-out: Efficacy %): 100% | inhibition of growth at 1 ppm (Cercospora beticola [2]; Cercospora beticola, 1.0 ppm, read-out: Efficacy %): 100% | inhibition of growth at 0.004 ppm (Alternaria alternata; Alternaria alternata, single compound, 0.004 ppm, read-out: Efficacy): 46% | inhibition of growth at 0.02 ppm (Alternaria alternata; Alternaria alternata, single compound, 0.02 ppm, read-out: Efficacy): 89% | inhibition of growth at 0.1 ppm (Alternaria alternata; Alternaria alternata, single compound, 0.1 ppm, read-out: Efficacy): 100% | inhibition of growth at 0.5 ppm (Alternaria alternata; Alternaria alternata, single compound, 0.5 ppm, read-out: Efficacy): 99% | inhibition of growth at 0.004 ppm (Cordana musae [3]; Neocordana musae, 0.004 ppm, read-out: Efficacy): 0% | inhibition of growth at 0.1 ppm (Cordana musae [3]; Neocordana musae, 0.1 ppm, read-out: Efficacy): 81% | inhibition of growth at 0.5 ppm (Cordana musae [3]; Neocordana musae, 0.5 ppm, read-out: Efficacy): 100% | inhibition of growth at 0.004 ppm (Colletotrichum coccodes; Colletotrichum coccodes, single active compound at 0.004 ppm, read-out: Efficacy %): 0% | inhibition of growth at 0.02 ppm (Colletotrichum coccodes; Colletotrichum coccodes, single active compound at 0.02 ppm, read-out: Efficacy %): 1% | inhibition of growth at 0.5 ppm (Colletotrichum coccodes; Colletotrichum coccodes, single active compound at 0.5 ppm, read-out: Efficacy %): 100% | inhibition of growth at 0.008 ppm (Botrytis cinerea; Botrytis cinerea, 0.008 ppm, read-out: Efficacy %): 0% | inhibition of growth at 0.04 ppm (Botrytis cinerea; Botrytis cinerea, 0.04 ppm, read-out: Efficacy %): 48% | inhibition of growth at 0.2 ppm (Botrytis cinerea; Botrytis cinerea, 0.2 ppm, read-out: Efficacy %): 94% | inhibition of growth at 1 ppm (Botrytis cinerea; Botrytis cinerea, 1.0 ppm, read-out: Efficacy %): 100% | inhibition of growth at 0.008 ppm (Diaporthe citri; Diaporthe citri, applied alone, 0.008 ppm, read-out: Efficacy): 0% | inhibition of growth at 0.04 ppm (Diaporthe citri; Diaporthe citri, applied alone, 0.04 ppm, read-out: Efficacy): 95% | inhibition of growth at 0.2 ppm (Diaporthe citri; Diaporthe citri, applied alone, 0.2 ppm, read-out: Efficacy): 100% | inhibition of growth at 1 ppm (Diaporthe citri; Diaporthe citri, applied alone, 1.0 ppm, read-out: Efficacy): 99% | inhibition of growth at 0.008 ppm ([4]; Colletotrichum lindemuthianum, mixing partner alone, 0.008 ppm, read-out: Efficacy %): 0% | inhibition of growth at 0.04 ppm ([4]; Colletotrichum lindemuthianum, mixing partner alone, 0.04 ppm, read-out: Efficacy %): 20% | inhibition of growth at 0.2 ppm ([4]; Colletotrichum lindemuthianum, mixing partner alone, 0.2 ppm, read-out: Efficacy %): 100% | inhibition of growth at 1 ppm ([4]; Colletotrichum lindemuthianum, mixing partner alone, 1.0 ppm, read-out: Efficacy %): 100% | inhibition of growth at 0.004 ppm (Cercospora beticola [5]; [9]): 39% | inhibition of growth at 0.1 ppm (Cercospora beticola [5]; [9]): 100% | inhibition of growth at 0.5 ppm (Cercospora beticola [5]; [9]): 100% | inhibition of growth at 0.004 ppm (Cercospora beticola [5]; [10]): 30% | inhibition of growth at 0.02 ppm (Cercospora beticola [5]; Cercospora beticola, single compound, 0.02 ppm, read-out: Efficacy %): 0% | inhibition of growth at 0.1 ppm (Cercospora beticola [5]; [10]): 15% | inhibition of growth at 0.5 ppm (Cercospora beticola [5]; [10]): 0%

N#Cc1ccc(Oc2ccc(C(F)(F)C(O)(Cn3[nH]cnc3=S)c3ccc(F)cc3F)nc2)cc1 (centres unmarked) [(1.062) fluoxytioconazole, fluoxytio-conazole]
Efficacy (Fusarium culmorum; single active compound, 1 ppm): 30% | Efficacy (Cordana musae [3]; 0.008 ppm): 4% | Efficacy (Cordana musae [3]; 0.2 ppm): 10% | Efficacy % (Colletotrichum coccodes; 0.008 ppm): 32% | Efficacy % (Colletotrichum coccodes; 0.04 ppm): 0% | Efficacy % (Colletotrichum coccodes; single active compound at 0.008 ppm): 0% | Efficacy % (Colletotrichum coccodes; single active compound at 0.04 ppm): 2% | Efficacy % (Colletotrichum coccodes; single active compound at 0.2 ppm): 29% | Efficacy % (Colletotrichum coccodes; single active compound at 1 ppm): 35% | Efficacy % ([6]; 0.04 ppm): 43% | Efficacy % (Cercospora beticola [5]; single compound, 0.008 ppm): 0% | Efficacy % (Cercospora beticola [5]; single compound, 0.04 ppm): 0% | Efficacy % (Cercospora beticola [5]; single compound, 0.2 ppm): 0% | Efficacy % (Cercospora beticola [5]; single compound, 1 ppm): 48% and 54%

COCC(=O)N(c1c(C)cccc1C)[C@H](C)C(=O)OC [(12.004) metalaxylm]
Efficacy % (Colletotrichum coccodes; single active compound at 0.8 ppm): 40% | Efficacy % (Colletotrichum coccodes; [11]): 24% | Efficacy % (Colletotrichum coccodes; single active compound at 20 ppm): 48% | Efficacy % (Colletotrichum coccodes; single active compound at 100 ppm): 61% | Efficacy % ([6]; 0.8 ppm): 8% | Efficacy % ([6]; 100 ppm): 3%

Fc1ccc(Oc2ccnc3cc(Cl)cc(Cl)c23)cc1 [(13.005) quinoxifen]
Efficacy % (Cercospora beticola [5]; single compound, 0.08 ppm): 3%

CCO[PH](=O)[O-].CCO[PH](=O)[O-].CCO[PH](=O)[O-].[Al+3] [(15.012) fosetyl-al]
Efficacy (Cordana musae [3]; 0.8 ppm): 0%

CCO[PH](=O)[O-].CCO[PH](=O)[O-].CCO[PH](=O)[O-].[Al+3] [(15.012) fosetyl-aluminium, fosetyl-aluminium]
Efficacy (Diaporthe citri; Table F11, 0.8 ppm alone): 23% | Efficacy (Diaporthe citri; Table F11, 4.0 ppm alone): 0% | Efficacy (Diaporthe citri; Table F11, 20.0 ppm alone): 0% | Efficacy (Diaporthe citri; Table F11, 100.0 ppm alone): 0% | Efficacy (Diaporthe citri; applied alone, 0.8 ppm): 0% | Efficacy (Diaporthe citri; applied alone, 4.0 ppm): 23% | Efficacy (Diaporthe citri; applied alone, 100.0 ppm): 30% | Efficacy % ([4]; mixing partner alone, 4.0 ppm): 0% | Efficacy % ([4]; mixing partner alone, 20.0 ppm): 8% | Efficacy % ([4]; mixing partner alone, 100.0 ppm): 70% | Efficacy % ([4]; single active at 0.8 ppm): 0% | Efficacy % ([4]; single active at 4.0 ppm): 0% | Efficacy % ([4]; single active at 100.0 ppm): 39% and 58%

CCO[PH](=O)[O-].CCO[PH](=O)[O-].CCO[PH](=O)[O-].[Al+3] [(15.012) fosetylaluminium]
Efficacy % (Botrytis cinerea; 0.8 ppm): 0% | Efficacy % (Botrytis cinerea; 4.0 ppm): 13% | Efficacy % (Botrytis cinerea; 100.0 ppm): 1%

CS(=O)(=O)Oc1cccc(Cl)c1C1CC(c2csc(C3CCN(C(=O)Cn4nc(C(F)F)cc4C(F)F)CC3)n2)=NO1 (centres unmarked) [(15.043) fluoxapiprolin, fluoxa-piprolin]
Efficacy (Fusarium culmorum; single active compound, 0.8 ppm): 13% | Efficacy (Fusarium culmorum; single active compound, 4 ppm): 14% | Efficacy (Cordana musae [3]; 20 ppm): 0% | Efficacy % (Colletotrichum coccodes; 0.8 ppm): 0% | Efficacy % (Colletotrichum coccodes; 20 ppm): 0% | Efficacy % (Colletotrichum coccodes; [11]): 0% and 2% | Efficacy % (Cercospora beticola [5]; single compound, 0.8 ppm): 0% | Efficacy % (Cercospora beticola [5]; single compound, 4 ppm): 3% and 0% | Efficacy % (Cercospora beticola [5]; single compound, 20 ppm): 0%

CCO[PH](=O)O [fosetylal]
Efficacy (Fusarium culmorum; 0.8 ppm, alone): 11% | Efficacy (Alternaria alternata; 4 ppm): 0% | Efficacy (Alternaria alternata; 20 ppm): 4% | Efficacy (Alternaria alternata; 100 ppm): 8% | Efficacy (Alternaria alternata; single compound, 0.8 ppm): 0% | Efficacy (Alternaria alternata; single compound, 4 ppm): 2%

CCCN(CC)CC1COC2(CCC(C(C)(C)C)CC2)O1 (centres unmarked) [spiroxamin]
Efficacy (Fusarium culmorum; 0.8 ppm, alone): 3% | Efficacy (Alternaria alternata; single compound, 0.8 ppm): 3% | Efficacy (Alternaria alternata; single compound, 4 ppm): 15% | Efficacy (Alternaria alternata; single compound, 20 ppm): 15%
